Results from US20170209447A1, “Use of PNP Inhibitor to Treat Relapse of Malignancy after Hematopoietic Stem Cell Transplant” (Nitor Therapeutics, priority 2014, published 2017).

Tests used:
human TLR7 = target: T1, human TLR7 (Homo sapiens, UniProt Q9NYK1); assay: TLR ligand screening: NF-κB SEAP reporter in HEK293 cells expressing TLR7; assay type: cell-based; conditions: one concentration: NTR001 10 uM, Inosine 100 uM, triplicate, FIG. 2
T1 construct: expressed in transfected cells; host or cells: HEK293
T1 sequence (Q9NYK1 27-1049): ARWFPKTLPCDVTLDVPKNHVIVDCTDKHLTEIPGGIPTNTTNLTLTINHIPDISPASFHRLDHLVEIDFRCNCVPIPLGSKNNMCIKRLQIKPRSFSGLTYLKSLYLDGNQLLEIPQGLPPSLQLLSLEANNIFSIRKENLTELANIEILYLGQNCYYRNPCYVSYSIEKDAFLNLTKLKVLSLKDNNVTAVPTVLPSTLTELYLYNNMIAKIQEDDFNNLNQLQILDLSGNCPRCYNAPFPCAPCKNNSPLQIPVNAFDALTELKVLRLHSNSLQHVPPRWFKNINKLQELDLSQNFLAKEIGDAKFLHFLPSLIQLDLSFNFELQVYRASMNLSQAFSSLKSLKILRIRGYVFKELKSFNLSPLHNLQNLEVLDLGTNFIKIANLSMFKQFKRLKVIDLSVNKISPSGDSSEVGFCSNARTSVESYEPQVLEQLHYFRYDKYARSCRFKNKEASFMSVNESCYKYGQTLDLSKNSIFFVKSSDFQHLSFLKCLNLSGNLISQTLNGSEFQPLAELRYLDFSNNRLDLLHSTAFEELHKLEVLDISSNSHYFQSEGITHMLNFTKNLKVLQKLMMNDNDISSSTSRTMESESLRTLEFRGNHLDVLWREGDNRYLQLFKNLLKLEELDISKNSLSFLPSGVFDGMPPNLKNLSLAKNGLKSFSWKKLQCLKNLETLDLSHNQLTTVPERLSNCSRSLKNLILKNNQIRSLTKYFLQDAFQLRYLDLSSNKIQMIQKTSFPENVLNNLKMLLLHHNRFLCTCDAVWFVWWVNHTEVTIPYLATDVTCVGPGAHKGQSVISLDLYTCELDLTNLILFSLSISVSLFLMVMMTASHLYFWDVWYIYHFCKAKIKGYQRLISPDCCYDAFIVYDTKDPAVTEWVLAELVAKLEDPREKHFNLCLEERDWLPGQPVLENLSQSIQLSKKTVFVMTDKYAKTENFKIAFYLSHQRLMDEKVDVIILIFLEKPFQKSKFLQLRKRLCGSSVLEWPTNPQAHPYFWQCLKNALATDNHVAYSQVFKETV
Protocol: (§1) Toll-Like Receptor (TLR) Ligand Screening: In-vitro Activity of the PNPi, Guanosine and Inosine on Seven Different Human TLRs (TLR2, 3, 4, 5, 7, 8 and 9) as a Potential Agonist.
(§2) Method: TLR stimulation is tested by assessing NF-KB activation in HEK293 cells expressing a given TLR. The Secreted Embryonic Alkaline Phosphatase (SEAP) reporter is under the control of a promoter inducible by the transcription factor NF-κB.
(§3) This reporter gene allows the monitoring of signaling through the TLR, based on the activation of NF-κB. The compounds are evaluated at one concentration and compared to control ligands. This step is performed in triplicate.

human TLR8 = target: T2, human TLR8 (Homo sapiens, UniProt Q9NR97); assay: TLR ligand screening: NF-κB SEAP reporter in HEK293 cells expressing TLR8; assay type: cell-based; conditions: one concentration: NTR001 10 uM, Inosine 100 uM, triplicate, FIG. 2
T2 construct: expressed in transfected cells; host or cells: HEK293
T2 sequence (Q9NR97 27-1041): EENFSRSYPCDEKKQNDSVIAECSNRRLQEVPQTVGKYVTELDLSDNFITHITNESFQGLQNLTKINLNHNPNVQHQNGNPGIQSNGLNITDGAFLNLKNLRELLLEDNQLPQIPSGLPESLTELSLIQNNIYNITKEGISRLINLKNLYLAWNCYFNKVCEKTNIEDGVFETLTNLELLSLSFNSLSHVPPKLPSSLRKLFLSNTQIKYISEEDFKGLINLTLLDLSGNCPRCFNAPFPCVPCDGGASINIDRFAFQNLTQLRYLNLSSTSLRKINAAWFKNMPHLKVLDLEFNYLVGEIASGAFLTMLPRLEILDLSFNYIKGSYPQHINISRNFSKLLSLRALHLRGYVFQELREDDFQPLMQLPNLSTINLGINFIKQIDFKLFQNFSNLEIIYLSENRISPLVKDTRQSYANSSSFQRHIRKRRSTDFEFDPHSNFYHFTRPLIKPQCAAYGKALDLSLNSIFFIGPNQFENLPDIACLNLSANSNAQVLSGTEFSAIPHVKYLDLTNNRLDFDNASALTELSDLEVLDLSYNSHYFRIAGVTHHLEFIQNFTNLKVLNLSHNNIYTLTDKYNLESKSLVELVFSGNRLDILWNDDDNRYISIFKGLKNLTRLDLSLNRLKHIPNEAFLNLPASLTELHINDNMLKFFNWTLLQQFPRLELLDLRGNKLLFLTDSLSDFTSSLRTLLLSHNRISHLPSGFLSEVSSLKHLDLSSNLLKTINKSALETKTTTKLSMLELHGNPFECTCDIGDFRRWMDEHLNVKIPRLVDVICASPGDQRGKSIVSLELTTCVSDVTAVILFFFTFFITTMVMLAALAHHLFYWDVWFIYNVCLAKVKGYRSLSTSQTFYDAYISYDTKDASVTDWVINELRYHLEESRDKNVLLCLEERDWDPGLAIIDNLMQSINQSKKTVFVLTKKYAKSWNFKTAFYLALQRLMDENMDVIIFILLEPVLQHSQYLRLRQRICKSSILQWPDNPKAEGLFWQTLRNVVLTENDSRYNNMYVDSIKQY
Protocol: as §1, §2, §3

Structure (SMILES) | stimulatory effect on human TLR7 (NF-κB activation) (human TLR7) | stimulatory effect on human TLR8 (NF-κB activation) (human TLR8)
OC[C@H]1O[C@@H](n2cnc3c(O)ncnc32)[C@H](O)[C@@H]1O [Inosine, inosine] | do not exhibit a stimulatory effect | do not exhibit a stimulatory effect
O=c1[nH]cnc2c([C@@H]3N[C@H](CO)[C@@H](O)[C@H]3O)c[nH]c12 [NTR001, 7-[(2S,3S,4R,5R)-3,4-dihydroxy-5-(hydroxymethyl)-2-pyrrolidinyl]-1,5-dihyro-4-H-pyrrolo-[3,2-d]pyrimidin-4-one] | do not exhibit a stimulatory effect | do not exhibit a stimulatory effect
